According to patent US11899021B2, “Luciferase-based thermal shift assays” (Promega Corporation, priority 2015, dated 2024):

Columns and labels:
HDAC1-Nluc = target: T1, HDAC1-Nluc (Homo sapiens, UniProt Q13547); test: Direct-luciferase-detection thermal shift assay, HDAC1-Nluc (Example 7); format: binding; conditions: HeLa cells then digitonin, 10 uL of 1 mM stock per well
T1 construct: NanoLuc luciferase (Nluc); expressed in transfected cells; host or cells: HeLa
Protocol: (§1) The cells were seeded into 96-well tall-chimney PCR plate (Fisherbrand) at a density of 2×10^4 cells/well in a 90 uL/well volume and treated with 10 uL of 10% DMSO (Sigma) or 10 uL of a 1 mM stock solution of test compound in 10% DMSO. […] The plates were placed into a thermal cycler (MW Research) where the samples were heated individually at different temperatures spanning a gradient of 42-66° C. across the plate for 3 minutes followed by cooling at 22° C. for 3 minutes. 100 uL/well was then transferred to a tissue culture plate (Corning), and luminescence was measured on a BMG Clariostar luminometer equipped with a 450 nm BP filter. Data was normalized by relating RLU signals to the RLU of the lowest temperature for the respective sample.

Nluc-ABL1 = target: T2, Nluc-ABL1 (Homo sapiens, UniProt P00519); test: Direct-luciferase-detection thermal shift assay, compound selectivity, Nluc-ABL1 (Example 6); format: binding; conditions: Nluc-ABL1, HeLa cells then digitonin, 10 uL of 1 mM stock per well
T2 construct: NanoLuc luciferase (Nluc); expressed in transfected cells; host or cells: HeLa
Protocol: as §1, with “HeLa cells were transfected separately with CDK2-Nluc or Nluc-ABL1 DNA at a 1:100 DNA ratio and incubated overnight. […] The cells” for “The cells”, “plates were then incubated for ½ hour in a humidified, 37° C./5% CO2 incubator prior to addition of 10 uL/well of a 0.5 mg/ml solution of digitonin (Sigma) and 10% DMSO (Sigma). The plates were placed into” for “plates were placed into”, “3 minutes. Furimazine Live Cell Substrate (Promega) was added to a final concentration of 1× in 20 uL/well volume. 100 uL/well” for “3 minutes. 100 uL/well”, “respective sample. Data was then fitted to obtain apparent melting temperature where the protein was precipitating (Tagg values) using the Boltzmann Sigmoidal equation with Graphpad Prism software.” for “respective sample.”

CDK2-Nluc = target: T3, CDK2-Nluc (Homo sapiens, UniProt P24941); test: Direct-luciferase-detection thermal shift assay, compound selectivity, CDK2-Nluc (Example 6); format: binding; conditions: HeLa cells then digitonin, 10 uL of 1 mM stock per well
T3 construct: NanoLuc luciferase (Nluc); expressed in transfected cells; host or cells: HeLa
Protocol: as §1, with “HeLa cells were transfected separately with CDK2-Nluc or Nluc-ABL1 DNA at a 1:100 DNA ratio and incubated overnight. […] The cells” for “The cells”, “plates were then incubated for ½ hour in a humidified, 37° C./5% CO2 incubator prior to addition of 10 uL/well of a 0.5 mg/ml solution of digitonin (Sigma) and 10% DMSO (Sigma). The plates were placed into” for “plates were placed into”, “3 minutes. Furimazine Live Cell Substrate (Promega) was added to a final concentration of 1× in 20 uL/well volume. 100 uL/well” for “3 minutes. 100 uL/well”, “respective sample. Data was then fitted to obtain apparent melting temperature where the protein was precipitating (Tagg values) using the Boltzmann Sigmoidal equation with Graphpad Prism software.” for “respective sample.”

[1] = Optical property of dyes in DMSO (Table 1); format: physicochemical; conditions: for Optical Property (in DMSO) Excitation: unit assumed

T1 sequence (Q13547 whole entry): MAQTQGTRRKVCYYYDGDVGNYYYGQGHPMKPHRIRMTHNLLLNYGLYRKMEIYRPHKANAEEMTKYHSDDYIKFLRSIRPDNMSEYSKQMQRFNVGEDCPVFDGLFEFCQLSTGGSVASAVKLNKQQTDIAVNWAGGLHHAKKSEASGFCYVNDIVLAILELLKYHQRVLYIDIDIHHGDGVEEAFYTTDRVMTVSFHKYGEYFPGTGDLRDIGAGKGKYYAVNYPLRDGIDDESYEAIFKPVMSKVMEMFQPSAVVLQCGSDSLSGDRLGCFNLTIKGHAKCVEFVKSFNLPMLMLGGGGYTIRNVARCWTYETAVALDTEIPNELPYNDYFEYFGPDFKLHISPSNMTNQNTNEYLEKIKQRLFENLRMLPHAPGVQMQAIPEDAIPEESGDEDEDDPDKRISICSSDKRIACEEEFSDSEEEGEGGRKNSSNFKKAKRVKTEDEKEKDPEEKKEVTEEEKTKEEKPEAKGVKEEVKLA
T2 sequence (P00519 whole entry): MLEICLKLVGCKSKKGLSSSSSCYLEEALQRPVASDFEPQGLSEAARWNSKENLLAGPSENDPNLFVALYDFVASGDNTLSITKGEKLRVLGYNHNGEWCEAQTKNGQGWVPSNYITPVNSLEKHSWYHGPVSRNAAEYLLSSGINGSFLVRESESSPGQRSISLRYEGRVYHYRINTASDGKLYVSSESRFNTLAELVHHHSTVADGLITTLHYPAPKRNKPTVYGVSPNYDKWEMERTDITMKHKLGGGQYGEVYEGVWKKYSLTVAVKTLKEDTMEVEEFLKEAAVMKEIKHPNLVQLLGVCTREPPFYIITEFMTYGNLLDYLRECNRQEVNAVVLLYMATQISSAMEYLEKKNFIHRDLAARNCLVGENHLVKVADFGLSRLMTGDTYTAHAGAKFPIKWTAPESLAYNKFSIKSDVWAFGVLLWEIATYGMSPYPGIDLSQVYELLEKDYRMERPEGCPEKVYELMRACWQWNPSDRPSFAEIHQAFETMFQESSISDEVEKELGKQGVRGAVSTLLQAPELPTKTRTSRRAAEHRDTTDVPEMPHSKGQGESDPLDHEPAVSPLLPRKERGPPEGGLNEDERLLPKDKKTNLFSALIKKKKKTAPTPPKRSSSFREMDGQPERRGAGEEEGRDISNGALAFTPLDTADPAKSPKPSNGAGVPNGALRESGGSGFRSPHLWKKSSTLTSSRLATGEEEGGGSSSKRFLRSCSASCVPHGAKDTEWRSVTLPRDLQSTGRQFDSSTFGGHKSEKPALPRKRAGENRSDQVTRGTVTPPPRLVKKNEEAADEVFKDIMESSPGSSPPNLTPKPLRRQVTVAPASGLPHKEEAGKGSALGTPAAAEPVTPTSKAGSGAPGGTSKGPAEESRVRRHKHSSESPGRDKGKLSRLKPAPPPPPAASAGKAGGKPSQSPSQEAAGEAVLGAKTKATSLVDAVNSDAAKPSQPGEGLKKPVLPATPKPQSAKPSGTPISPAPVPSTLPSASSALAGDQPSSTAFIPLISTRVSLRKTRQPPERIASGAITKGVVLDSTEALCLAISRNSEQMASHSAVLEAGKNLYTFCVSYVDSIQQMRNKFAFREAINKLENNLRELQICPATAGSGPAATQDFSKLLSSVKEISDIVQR

| Compound | shift in melting temperature (apparent Tagg) compared to the controls (HDAC1-Nluc) | shift in apparent Tagg compared to DMSO controls (Nluc-ABL1) | shift in apparent Tagg compared to DMSO controls (CDK2-Nluc) | Optical Property (in DMSO) Emission [1] | Optical Property (in DMSO) Excitation [1] [nm] |
| --- | --- | --- | --- | --- | --- |
| O=C(CCCCCCNC(=O)c1cnc(N(c2ccccc2)c2ccccc2)nc1)NO [ACY1215] | significant shift in melting temperature (apparent Tagg) |  |  |  |  |
| Cn1c(NC[C@@H](N)Cc2ccccc2)nc(-c2ccncc2)c(-c2ccc3ccccc3c2)c1=O [AMG548] |  | did not | did not result in a significant shift in apparent Tagg |  |  |
| CCCCCCN(CCCCCC)c1ccc(/C=C/c2cccc[n+]2CCCS(=O)(=O)[O-])cc1 [CS0020] |  |  |  | 468 nm | 602 |
| CCCCCCN(CCCCCC)c1ccc(/C=C/C=C/c2cc[n+](CCCS(=O)(=O)[O-])cc2)cc1 [CS0024] |  |  |  | 516 nm | 702 |
| CCCCCCN(CCCCCC)c1ccc(/C=C/c2cc[n+](CCCS(=O)(=O)[O-])c3ccccc23)cc1 [CS0028] |  |  |  | 560 nm | 680 |
| CCCCCCN(CCCCCC)c1ccc(/C=C/c2cc[n+](CCCC(=O)O)cc2)cc1.[Br-] [CS0036, (E)-1-(3-Carboxypropyl)-4-(4-(dihexylamino)styryl)pyridin-1-ium chloride] |  |  |  | 480 nm | 624 |
| CCCCCCN(CCCCCC)c1ccc(/C=C/c2cc[n+](CCCS(=O)(=O)[O-])cc2)c2ccccc12 [CS0038] |  |  |  | 462 nm | 654 |
| CCCCCCN(CCCCCC)c1ccc(/C=C/c2cc[n+](CCCC(=O)NCCCS(=O)(=O)[O-])cc2)cc1 [CS0043] |  |  |  | 468 nm | 620 |
| CCCCCCN(CCCCCC)c1ccc(/C=C/c2cc[n+](CCCC(=O)NCCOCCOCCOCCC(=O)O)cc2)cc1.[Br-] [CS0045, (E)-1-(1-Carboxy-13-oxo-3,6,9-trioxa-12-azahexadecan-16-yl)-4-(4-(dihexylamino)styryl)pyridin-1-ium chloride] |  |  |  | 480 nm | 622 |
| CCCCCCN(CCCCCC)c1ccc(/C=C/c2cc[n+](CCCC(=O)NCCOCCOCCOCCC(=O)NCCCS(=O)(=O)[O-])cc2)cc1 [CS0048, (E)-21-(4-(4-(Dihexylamino)styryl)pyridin-1-ium-1-yl)-5,18-dioxo-8,11,14-trioxa-4,17-diazahenicos-ane-1-sulfonate] |  |  |  | 478 nm | 620 |
| CCCCCCN(CCCCCC)c1ccc(/C=C/C2=[N+](C)c3ccccc3C2(C)C)cc1.[I-] [CS0067] |  |  |  | 550 nm | 604 |
| CCCCCCN(CCCCCC)c1cccc2c(/C=C/c3cc[n+](CCCS(=O)(=O)[O-])cc3)cccc12 [CS0071] |  |  |  | not fluorescent |  |
| CCCCCCN(CCCCCC)c1ccc(/C=C/c2ccc3c(ccc[n+]3CCCS(=O)(=O)[O-])c2)cc1 [CS0072] |  |  |  | not fluorescent |  |
| CCCCCCN(CCCCCC)c1ccc(/C=C/c2cc[n+](CCCC(=O)N(CCCS(=O)(=O)[O-])CCCS(=O)(=O)O)cc2)cc1 [CS0073, (E)-3-(4-(4-(4-(Dihexylamino)styryl)pyridin-1-ium-1-yl)-N-(3-sulfopropyl)butanamido)propane-1-sulfonate] |  |  |  | 480 nm | 620 |
| CCCCCCN(CCCCCC)c1ccc(/C=C/c2ccc3ccccc3[n+]2C)cc1.[I-] [CS0085] |  |  |  | 532 nm | 640 |
| C[n+]1c(/C=C/c2ccc3ccccc3c2)ccc2ccccc21.[I-] [CS0087] |  |  |  | 400 nm | 550 |
| CCCCCCN(CCCCCC)c1ccc(/C=C/c2cc[n+](C34CC5CC(CC(C5)C3)C4)cc2)cc1.[Br-] [CS0096] |  |  |  | 480 nm | 618 |
| CCCCCCN(CCCCCC)c1ccc(/C=C/c2cc[n+](CCCC(=O)NCCOCCOCCOCCC(=O)OC(C)(C)C)cc2)cc1.[Br-] [CS0100, (E)-4-(4-(Dihexylamino)styryl)-1-(2,2-dimethyl-4,17-dioxo-3,7,10,13-tetraoxa-16-azaicosan-20-yl)pyridin-1-ium chloride] |  |  |  | 480 nm | 622 |
| CCCCCCN(CCCCCC)c1ccc(/C=C/c2cc[n+](CCCC(=O)OCC)cc2)cc1.[Br-] [CS0101, (E)-4-(4-(Dihexylamino)styryl)-1-(4-ethoxy-4-oxobutyl)pyridin-1-ium bromide] |  |  |  | 480 nm | 624 |
| CCCCCCN(CCCCCC)c1ccc(/C=C/c2cc[n+](CC)cc2)cc1.[OH-] [CS0112] |  |  |  | 480 nm | 620 |
| CCCCCCN(CCCCCC)c1ccc(/C=C/c2ccncc2)cc1 [CS0117, (E)-N,N-Dihexyl-4-(2-(pyridin-4-yl)vinyl)aniline] |  |  |  | 468 nm | 620 |
| CCCCCCN(CCCCCC)c1ccc(/C=C/c2cc[n+](CCC(F)(F)C(F)(F)C(F)(F)C(F)(F)C(F)(F)C(F)(F)F)cc2)cc1.[I-] [CS0121, (E)-4-(4-(dihexylamino)styryl)-1-(3,3,4,4,5,5,6,6,7,7,8,8,8-tridecafluorooctyl)pyridin-1-iumiodide] |  |  |  | 480 nm | 620 |
| CCCCCCN(CCCCCC)c1ccc(/C=C/C=C/c2cc[n+](CCCC(=O)NCCOCCOCCOCCC(=O)OC(C)(C)C)cc2)cc1 [CS0147] |  |  |  | 516 nm | 702 |
| CCCCCCN(CCCCCC)c1ccc(/C=C/C=C/c2cc[n+](CCC[N+](C)(C)C)cc2)cc1 [CS0155] |  |  |  | 516 nm | 702 |
| Nc1ccccc1NC(=O)c1ccc(CNc2nccc(-c3cccnc3)n2)cc1 [Mocetinostat] | significant shift in melting temperature (apparent Tagg) |  |  |  |  |
| Cc1cn(-c2cc(NC(=O)c3ccc(C)c(Nc4nccc(-c5cccnc5)n4)c3)cc(C(F)(F)F)c2)cn1 [Nilotinib] |  |  | did not result in a significant shift in apparent Tagg |  |  |
| C[S+]([O-])c1ccc(-c2nc(-c3ccncc3)c(-c3ccc(F)cc3)[nH]2)cc1 (stereo not shown) [SB203580] |  | did not | did not result in a significant shift in apparent Tagg |  |  |
